# Results reported in patent publication US12589143B2, “Human anti-PD-L1 peptide vaccines and methods of their use” (priority 2019, dated 2026).
# Values joined by “and” are separate entries in the source; they are usually repeats but may differ in a detail not shown here. Equal values may be shown once. Where no end group is shown, it is not given here.
# Test system: MVF-PD-L1 peptide immunogen
# Assay: Immunogenicity in Balb/c mice, experiment 1 (CT26 WT): ELISA of sera vs each MVF-PD-L1 peptide immunogen
# Assay type: in vivo
# Settings: for Immunogenicity (titers) 1′ Conc. 1:: Balb/c mice
# Method: Immunogenicity of MVF-PD-L1 B-cell epitopes. New Zealand White rabbits were immunized with 1 mg of each MVF-peptide immunogens dissolved in dd H2O emulsified (1:1) in Montanide ISA 720 vehicle (Seppic) with 333 μg of N-acetylglucosamine-3yl-acetyl-1-alanyl-d-isoglutamine (nor-MDP). Rabbits were boosted with the same doses at 3-week's intervals. Blood was collected via the central auricular artery in rabbits. Blood was collected weekly (1Y+3, 2Y+1, 2Y+2,2Y+3, 3Y+1, 3Y+2 and sera tested for antibody titers by ELISA using the immunogens MVF-PD-L1 peptides. Sera (terminal) from rabbit (3Y+3) immunized with MVF-PD-1 peptide immunogens were tested individually versus the immunogen by ELISA. 200 ng/well peptide were used in duplicates to coat the ELISA plates. Titers are defined as the highest dilution of sera with an absorbance value of 0.2 after subtracting the blank.
# FIGS. 5A, 5B, 5C, and 5D show the experimental scheme to test the immunization with PD-L1 in Balb/c mice. […] Balb/c mice 6-8 weeks old, were immunized with MVF-peptide immunogens emulsified in ISA 720 with nor-MDP three times and three weeks apart. Mice were immunized with MVF-PD-L1 vaccine constructs [PD-L1(36-53), PD-L1(50-67), PD-L1(95-112), PD-L1(130-147)] prior to tumor challenge. Blood was collected weekly and sera tested for antibody titers by ELISA. Two weeks after the third immunization (3Y), the mice were engrafted with CT26 WT tumor cells 10^5 per mouse Control mice were treated twice weekly with PBS as negative control and twice weekly with anti-mPD-L1 mAb (10F.9G2) as positive control starting 2 days after tumor challenge. Tumor growths were observed twice weekly and measured by calipers.
# Immunogenicity of MVF-PD-L1 peptides in BALB/c mice immunized with various peptide constructs. Sera collected weekly were tittered against each individual MVF-PD-L1 peptide immunogen. The Pink bar refers to titers versus PD-L1 130 and the red bar refers to titers versus PD-1 (92-110).
# In order to verify the efficacy of the PD-L1 epitope vaccines in vivo in the CT26 carcinoma cell line, Balb/c mice (10 mice/group) were immunized with 100 μg each of MVF-PD-L1 (36-53), MVF-PD-L1 (50-67), MVF-PD-L1 (95-112) and MVF-PD-L1 (130-147) emulsified with nor-MDP and Montanide 720 (1:1 ratio) SCHEME 1A (FIG. 5A). As detailed in SCHEME 1A-D (FIGS. 5A, 5B, 5C, and 5D), mice were immunized 3 times at 3 weeks intervals. […] All PD-L1 epitopes elicited high titers of PD-L1 anti-peptide antibodies by ELISA. […] We also investigated the combination of PD-1(92-110) with PD-L1-130-147.
# For each peptide, vaccine antibodies were raised in New Zealand white rabbits, purchased from Charles River Laboratories (Wilmington, MA, USA). Rabbits were immunized with 1 mg of MVF chimeric peptide emulsified in Montanide ISA 720 (Seppic, Paris, France) and boosted 3 times at three week intervals. For mouse experiments, mice, 6-8 weeks old, were immunized with 0.1 mg of peptide emulsified in ISA720 (1:1 ratio). Mice were boosted with the respective doses at 3-week intervals. Blood was then collected and sera were tested for antibody titers. Sera were collected weekly and peptide vaccine antibodies were purified by affinity chromatography using a protein A/G column and the concentration was measured using Spectrophometer. All experiments were performed in accordance with the U.S. Public Health Service Policy on Humane Care and Use of Laboratory animals and approved by the Ohio State University Institutional Animals Care and Use Committee, detailed in the accepted protocol.
# 6-8 weeks old BALB/c mice (Charles River, Wilmington, MA) were used as standard animal models. Mouse CT26 colon carcinoma cell line was purchased from American Type Culture Collection Cells and were regularly cultured in RPMI1640 medium containing 10% FBS. CT26/HER2 cells were kindly provided by M. Penichet. Vaccines were dissolved in sterile water and emulsified in Montanide ISA 720 (1:1). […]
sequence,measurement,setting,value
KLLSLIKGVIVHRLEGVEGPSLVTSEHELTCQAEGYPKAE (KLLSLIKGVIVHRLEGVEGPSLVTSEHELTCQAEGYPKAE-NH2) [PD-L1(130)],Immunogenicity (titers) 1′ Conc. 1:,bleed 1Y + 3,12800
same,Immunogenicity (titers) 1′ Conc. 1:,bleed 2Y + 1,12800
same,Immunogenicity (titers) 1′ Conc. 1:,bleed 2Y + 2,>12800
same,Immunogenicity (titers) 1′ Conc. 1:,bleed 2Y + 3,128000
same,Immunogenicity (titers) 1′ Conc. 1:,bleed 3Y + 1,128000
same,Immunogenicity (titers) 1′ Conc. 1:,bleed 3Y + 2,64000
same,Immunogenicity (titers) 1′ Conc. 1:,bleed 3Y + 3,64000
same,ELISA absorbance of sera,"bleed 1Y + 3 (1to100), dilution 100, primary antibody dilution 1:100",1.571 and 1.562
same,ELISA absorbance of sera,"bleed 1Y + 3 (1to100), dilution 200, primary antibody dilution 1:200",1.513 and 1.428
same,ELISA absorbance of sera,"bleed 1Y + 3 (1to100), dilution 400, primary antibody dilution 1:400",1.359 and 1.348
same,ELISA absorbance of sera,"bleed 1Y + 3 (1to100), dilution 800, primary antibody dilution 1:800",1.151 and 1.105
same,ELISA absorbance of sera,"bleed 1Y + 3 (1to100), dilution 1,600",0.888 and 0.871
same,ELISA absorbance of sera,"bleed 1Y + 3 (1to100), dilution 3,200",0.580 and 0.528
same,ELISA absorbance of sera,"bleed 1Y + 3 (1to100), dilution 6,400",0.348 and 0.314
same,ELISA absorbance of sera,"bleed 1Y + 3 (1to100), dilution 12,800",0.204 and 0.196
same,ELISA absorbance of sera,"bleed 2Y + 1 (1to100), dilution 100, primary antibody dilution 1:100",1.492 and 1.522
same,ELISA absorbance of sera,"bleed 2Y + 1 (1to100), dilution 200, primary antibody dilution 1:200",1.511 and 1.473
same,ELISA absorbance of sera,"bleed 2Y + 1 (1to100), dilution 400, primary antibody dilution 1:400",1.450 and 1.355
same,ELISA absorbance of sera,"bleed 2Y + 1 (1to100), dilution 800, primary antibody dilution 1:800",1.299 and 1.243
same,ELISA absorbance of sera,"bleed 2Y + 1 (1to100), dilution 1,600",1.049 and 0.898
same,ELISA absorbance of sera,"bleed 2Y + 1 (1to100), dilution 3,200",0.757 and 0.652
same,ELISA absorbance of sera,"bleed 2Y + 1 (1to100), dilution 6,400",0.461 and 0.403
same,ELISA absorbance of sera,"bleed 2Y + 1 (1to100), dilution 12,800",0.286 and 0.239
same,ELISA absorbance of sera,"bleed 2Y + 2 (1to100), dilution 100",1.483 and 1.544
same,ELISA absorbance of sera,"bleed 2Y + 2 (1to100), dilution 200",1.510 and 1.484
same,ELISA absorbance of sera,"bleed 2Y + 2 (1to100), dilution 400",1.508 and 1.469
same,ELISA absorbance of sera,"bleed 2Y + 2 (1to100), dilution 800",1.407 and 1.322
same,ELISA absorbance of sera,"bleed 2Y + 2 (1to100), dilution 1,600",1.252 and 1.192
same,ELISA absorbance of sera,"bleed 2Y + 2 (1to100), dilution 3,200",0.977 and 0.852
same,ELISA absorbance of sera,"bleed 2Y + 2 (1to100), dilution 6,400",0.704 and 0.577
same,ELISA absorbance of sera,"bleed 2Y + 3 (1to1k), dilution 100",1.227 and 1.226
same,ELISA absorbance of sera,"bleed 2Y + 3 (1to1k), dilution 200",1.175 and 1.183
same,ELISA absorbance of sera,"bleed 2Y + 3 (1to1k), dilution 400",1.164 and 1.091
same,ELISA absorbance of sera,"bleed 2Y + 3 (1to1k), dilution 800",1.040 and 0.957
same,ELISA absorbance of sera,"bleed 2Y + 3 (1to1k), dilution 1,600",0.846 and 0.797
same,ELISA absorbance of sera,"bleed 2Y + 3 (1to1k), dilution 3,200",0.665 and 0.655
same,ELISA absorbance of sera,"bleed 2Y + 3 (1to1k), dilution 6,400",0.432 and 0.397
same,ELISA absorbance of sera,"bleed 3Y + 1 (1to1k), dilution 100",1.387 and 1.385
same,ELISA absorbance of sera,"bleed 3Y + 1 (1to1k), dilution 200",1.327 and 1.336
same,ELISA absorbance of sera,"bleed 3Y + 1 (1to1k), dilution 400",1.315 and 1.233
same,ELISA absorbance of sera,"bleed 3Y + 1 (1to1k), dilution 800",1.176 and 1.081
same,ELISA absorbance of sera,"bleed 3Y + 1 (1to1k), dilution 1,600",0.955 and 0.901
same,ELISA absorbance of sera,"bleed 3Y + 1 (1to1k), dilution 3,200",0.752 and 0.740
same,ELISA absorbance of sera,"bleed 3Y + 1 (1to1k), dilution 6,400",0.488 and 0.449
same,ELISA absorbance of sera,"bleed 3Y + 2 (1to1k), dilution 100",1.562 and 1.601
same,ELISA absorbance of sera,"bleed 3Y + 2 (1to1k), dilution 200",1.394 and 1.374
same,ELISA absorbance of sera,"bleed 3Y + 2 (1to1k), dilution 400",1.156 and 1.199
same,ELISA absorbance of sera,"bleed 3Y + 2 (1to1k), dilution 800",0.867 and 0.876
same,ELISA absorbance of sera,"bleed 3Y + 2 (1to1k), dilution 1,600",0.656 and 0.658
same,ELISA absorbance of sera,"bleed 3Y + 2 (1to1k), dilution 3,200",0.439 and 0.431
same,ELISA absorbance of sera,"bleed 3Y + 2 (1to1k), dilution 6,400",0.286
same,ELISA absorbance of sera,"bleed 3Y + 3 (1to1k), dilution 100",1.823 and 1.827
same,ELISA absorbance of sera,"bleed 3Y + 3 (1to1k), dilution 200",1.614 and 1.704
same,ELISA absorbance of sera,"bleed 3Y + 3 (1to1k), dilution 400",1.411 and 1.516
same,ELISA absorbance of sera,"bleed 3Y + 3 (1to1k), dilution 800",1.110 and 1.208
same,ELISA absorbance of sera,"bleed 3Y + 3 (1to1k), dilution 1,600",0.752 and 0.880
same,ELISA absorbance of sera,"bleed 3Y + 3 (1to1k), dilution 3,200",0.445 and 0.537
same,ELISA absorbance of sera,"bleed 3Y + 3 (1to1k), dilution 6,400",0.243
